Active and inactive are the calls of the source.
Experiments:
[1] = NIH3T3 cell viability loss – ATP luminescence, mouse fibroblasts, counter-screen, dose response (AID 2010); format: functional, cell-based;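 further: cells exposed to compound for about 90 hours before reading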
[2] = molecular target: T1, E3 ubiquitin-protein ligase XIAP (Homo sapiens, UniProt P98170); test: Counter Screen using XIAP-Bir3 for Chemical Antagonists of Bir1/2 domains of IAP-family anti-apoptotic proteins. [Related pubchem assays (depositor defined):AID1018, AID1449, AID1514, AID1638, AID1749, AID1750, AID488957, AID488963]
T1 sequence (P98170 whole entry): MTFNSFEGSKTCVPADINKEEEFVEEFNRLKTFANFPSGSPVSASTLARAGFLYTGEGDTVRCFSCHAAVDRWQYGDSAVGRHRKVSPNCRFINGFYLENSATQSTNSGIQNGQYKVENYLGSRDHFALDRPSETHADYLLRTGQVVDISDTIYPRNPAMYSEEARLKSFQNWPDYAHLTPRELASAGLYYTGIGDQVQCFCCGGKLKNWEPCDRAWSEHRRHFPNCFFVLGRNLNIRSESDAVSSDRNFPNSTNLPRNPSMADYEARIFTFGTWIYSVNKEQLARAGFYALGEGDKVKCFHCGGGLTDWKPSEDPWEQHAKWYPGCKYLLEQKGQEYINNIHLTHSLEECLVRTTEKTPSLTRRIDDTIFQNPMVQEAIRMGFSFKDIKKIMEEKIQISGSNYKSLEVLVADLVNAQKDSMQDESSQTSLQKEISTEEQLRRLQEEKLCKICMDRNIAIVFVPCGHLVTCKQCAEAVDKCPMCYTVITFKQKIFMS

[3] = molecular target: T1, E3 ubiquitin-protein ligase XIAP; test: small molecules displacing peptide from XIAP – biochemical, IAP family, fluorescence polarization (AID 1018); format: functional
INS1 = test: INS-1E survival protection against cytokine death – cell-based, luminescence, retest, dose response (AID 449756); format: functional; conditions: Rattus norvegicus;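 further: cell death triggered by IL-1 beta plus TNF-alpha plus IFN-gamma mixture; protective hits raise ATP signal compared with cytokine alone wells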
[4] = Trypanosoma cruzi growth suppression in host cells – NIH3T3 host cells, beta-gal luminescence, confirmation (AID 2044); format: functional, cell-based;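 further: intracellular parasites grown in NIH/3T3 mouse fibroblasts as host cells; luminescent beta-galactosidase reporter signal from transgenic T. cruzi replicating inside host cells; inhibitors lower the luminescence signal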
CHO = CHO cell viability loss, potency – luminescence, cytotoxicity control for TLR9-MyD88 binding inhibitor project, dose response (AID 588339); format: functional, cell-based, hamster; conditions: Cricetulus griseus;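 further: CHO cells stably coexpressing TLR9 and MyD88 fusions from primary screen; compound exposure lasted 48 hours before viability readout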
Beta Lactamase = Beta Lactamase (Pseudomonas aeruginosa, UniProt Q932Y6); test: BLA reporter interference, concentration series – BLA reporter cells, FRET fluorescence, artefact control for TLR9-MyD88 binding inhibitor project, dose response (AID 588341); format: cell-based;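 further: cell based assay in CHO-K1 cells stably expressing beta-lactamase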
[5] = fluconazole-exposed Candida albicans growth modulators – fluorescence, retest, confirmation (AID 2467); format: functional, cell-based
[6] = NIH-3T3 fibroblast cytotoxicity, dose response, cytotoxicity control, cell-based, fluorescence, Alamar Blue, secondary assay (AID 2327); format: functional;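 further: NIH-3T3 mouse fibroblasts cultured with fluconazole at 8 µg/mL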
[7] = molecular target: ATP-dependent molecular chaperone HSP82 (Candida albicans (strain WO-1) (Yeast), UniProt C4YTQ8); test: steroid-induced GRE reporter decrease in yeast – S. cerevisiae, luminescence, Hsp90 inhibitor project, dose response (AID 2400); format: functional, cell-based;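 further: beta-galactosidase luminescence from glucocorticoid response element reporter as proxy for Hsp90 function; inhibitor potency where signal loss means Hsp90 inhibition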
Sequence of ATP-dependent molecular chaperone HSP82 (C4YTQ8 whole entry, the tested form may be a part): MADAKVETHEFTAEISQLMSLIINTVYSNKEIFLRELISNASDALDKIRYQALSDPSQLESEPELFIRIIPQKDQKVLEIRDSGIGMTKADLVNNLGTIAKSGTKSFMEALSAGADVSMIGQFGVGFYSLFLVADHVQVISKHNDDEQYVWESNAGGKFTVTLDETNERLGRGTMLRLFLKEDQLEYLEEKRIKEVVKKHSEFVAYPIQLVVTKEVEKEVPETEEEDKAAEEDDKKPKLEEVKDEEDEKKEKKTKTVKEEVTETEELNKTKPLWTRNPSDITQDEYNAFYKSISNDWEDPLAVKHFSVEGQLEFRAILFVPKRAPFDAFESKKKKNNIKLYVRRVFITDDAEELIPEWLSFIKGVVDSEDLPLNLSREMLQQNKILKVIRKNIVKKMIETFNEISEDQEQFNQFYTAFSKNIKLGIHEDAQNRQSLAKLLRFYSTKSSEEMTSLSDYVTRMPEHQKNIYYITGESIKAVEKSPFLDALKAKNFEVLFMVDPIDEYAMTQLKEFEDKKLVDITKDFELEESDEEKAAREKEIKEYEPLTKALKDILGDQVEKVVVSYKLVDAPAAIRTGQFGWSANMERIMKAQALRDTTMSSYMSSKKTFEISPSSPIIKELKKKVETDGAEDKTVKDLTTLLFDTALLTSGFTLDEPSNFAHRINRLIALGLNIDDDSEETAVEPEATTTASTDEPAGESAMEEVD

[8] = molecular target: NACHT, LRR and PYD domains-containing protein 3 (Homo sapiens, UniProt Q96P20); test: NALP3 inhibitors in yeast, dose response, luminescent (AID 488799); format: functional
[9] = molecular target: Serine/threonine-protein phosphatase (Candida dubliniensis (strain CD36 / CBS 7987 / NCPF 3949 / NRRLY-17841) (Yeast), UniProt B9W6M3); test: blockers of CaCl2-induced CDRE-lacZ signaling – S. cerevisiae, luminescence, secondary, dose response (AID 2388); format: functional, cell-based;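 further: yeast reporter cells carrying a calcineurin-responsive lacZ construct stimulated with calcium chloride; luminescent beta-galactosidase reporter signal in whole cells rather than isolated phosphatase activity; potency for inhibition where a drop in reporter signal means calcineurin blockade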
Sequence of Serine/threonine-protein phosphatase (B9W6M3 whole entry): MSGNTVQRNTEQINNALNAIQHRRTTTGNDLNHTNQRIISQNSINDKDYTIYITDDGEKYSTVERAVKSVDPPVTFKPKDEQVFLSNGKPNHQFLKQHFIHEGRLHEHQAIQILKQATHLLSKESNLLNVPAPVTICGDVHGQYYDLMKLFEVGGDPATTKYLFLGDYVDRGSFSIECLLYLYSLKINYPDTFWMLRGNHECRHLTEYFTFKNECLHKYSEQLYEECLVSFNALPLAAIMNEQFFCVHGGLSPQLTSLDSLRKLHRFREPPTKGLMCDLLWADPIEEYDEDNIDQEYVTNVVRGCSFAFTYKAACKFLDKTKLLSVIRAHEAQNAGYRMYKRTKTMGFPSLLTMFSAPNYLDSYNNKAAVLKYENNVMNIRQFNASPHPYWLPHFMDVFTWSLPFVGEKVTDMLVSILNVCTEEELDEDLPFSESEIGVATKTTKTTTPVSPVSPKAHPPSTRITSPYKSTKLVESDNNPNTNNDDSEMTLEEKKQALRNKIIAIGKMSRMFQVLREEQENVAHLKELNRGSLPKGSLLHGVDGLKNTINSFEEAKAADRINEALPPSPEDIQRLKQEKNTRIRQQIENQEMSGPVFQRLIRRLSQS

Escherichia coli = test: microbe, parasite or virus in culture
BJ [10] = test: BJ-TERT-LT-ST fibroblast viability loss – cell-based, RAS-independent, luminescence, dose response (AID 1935); format: functional; conditions: Homo sapiens;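 further: BJ fibroblasts immortalized with TERT plus LT and ST oncogenes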
[11] = DRD fibroblast viability loss – cell-based, non-viral oncogenic, luminescence, dose response (AID 1934); format: functional; conditions: Homo sapiens
BJ [12] = test: BJ-TERT fibroblast viability loss – cell-based, RAS-independent, luminescence, dose response (AID 1933); format: functional; conditions: Homo sapiens
HEK293 [13] = test: cells; conditions: Homo sapiens
BJ [14] = test: cells; format: functional, cell-based; conditions: Homo sapiens
HEK293 [15] = test: cells; conditions: Homo sapiens; remark: listed apart in the source
Ion channel NompC = Ion channel NompC (Danio rerio, UniProt Q7T1G6); test: Dose response cell-based high-throughput screening assay for agonists of the transient receptor potential channel N1 (TRPN1). [Related pubchem assays (depositor defined):AID1424, AID1448]; format: functional
Sequence of Ion channel NompC (Q7T1G6 whole entry): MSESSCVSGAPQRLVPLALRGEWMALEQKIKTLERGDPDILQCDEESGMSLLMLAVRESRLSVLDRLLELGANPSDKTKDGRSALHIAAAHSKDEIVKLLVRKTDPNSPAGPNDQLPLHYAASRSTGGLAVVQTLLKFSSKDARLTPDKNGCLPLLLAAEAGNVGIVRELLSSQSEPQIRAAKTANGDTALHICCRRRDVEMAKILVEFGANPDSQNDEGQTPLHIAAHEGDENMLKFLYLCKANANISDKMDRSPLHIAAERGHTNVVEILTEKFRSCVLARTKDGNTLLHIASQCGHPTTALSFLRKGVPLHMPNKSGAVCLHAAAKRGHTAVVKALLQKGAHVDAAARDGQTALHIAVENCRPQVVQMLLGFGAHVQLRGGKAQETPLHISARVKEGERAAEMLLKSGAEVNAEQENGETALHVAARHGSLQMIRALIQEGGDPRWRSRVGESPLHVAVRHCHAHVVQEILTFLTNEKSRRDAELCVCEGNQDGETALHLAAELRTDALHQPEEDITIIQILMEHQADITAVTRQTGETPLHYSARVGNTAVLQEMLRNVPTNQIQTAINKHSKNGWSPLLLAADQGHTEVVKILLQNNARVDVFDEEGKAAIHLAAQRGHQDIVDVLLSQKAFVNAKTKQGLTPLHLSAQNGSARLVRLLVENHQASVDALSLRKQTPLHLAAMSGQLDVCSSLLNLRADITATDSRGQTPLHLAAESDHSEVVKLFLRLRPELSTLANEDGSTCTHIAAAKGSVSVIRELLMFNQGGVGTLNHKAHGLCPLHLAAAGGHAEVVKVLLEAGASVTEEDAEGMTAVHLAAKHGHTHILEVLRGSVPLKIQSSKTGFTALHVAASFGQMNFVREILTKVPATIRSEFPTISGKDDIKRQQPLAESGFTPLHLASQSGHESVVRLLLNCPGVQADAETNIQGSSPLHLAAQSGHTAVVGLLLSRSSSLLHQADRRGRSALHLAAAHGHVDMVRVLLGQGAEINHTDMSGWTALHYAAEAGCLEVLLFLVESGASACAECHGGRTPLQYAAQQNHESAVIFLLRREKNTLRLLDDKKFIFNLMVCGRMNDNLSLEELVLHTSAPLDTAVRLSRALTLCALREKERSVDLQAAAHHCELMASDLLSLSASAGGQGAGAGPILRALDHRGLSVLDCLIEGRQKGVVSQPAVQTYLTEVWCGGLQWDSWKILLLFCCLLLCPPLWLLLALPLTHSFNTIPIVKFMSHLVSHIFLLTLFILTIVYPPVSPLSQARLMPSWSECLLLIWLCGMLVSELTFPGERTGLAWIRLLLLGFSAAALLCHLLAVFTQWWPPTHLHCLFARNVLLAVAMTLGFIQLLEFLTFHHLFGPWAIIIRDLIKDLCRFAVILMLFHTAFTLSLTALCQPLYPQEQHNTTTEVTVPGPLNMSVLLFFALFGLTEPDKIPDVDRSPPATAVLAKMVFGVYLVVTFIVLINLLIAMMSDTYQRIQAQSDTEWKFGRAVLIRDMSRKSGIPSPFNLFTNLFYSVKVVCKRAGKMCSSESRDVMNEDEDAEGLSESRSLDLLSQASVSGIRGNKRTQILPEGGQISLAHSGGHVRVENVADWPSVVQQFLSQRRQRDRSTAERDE

Mucolipin-3 = molecular target: T2, Mucolipin-3 (Homo sapiens, UniProt Q8TDD5); test: Fluorescence counterscreen assay for […] agonists: dose response cell-based high-throughput screening assay to identify agonists of the transient receptor potential channel ML3 (TRPML3). [Related pubchem assays: 1424, 1448 ]; format: functional
T2 sequence (Q8TDD5 whole entry): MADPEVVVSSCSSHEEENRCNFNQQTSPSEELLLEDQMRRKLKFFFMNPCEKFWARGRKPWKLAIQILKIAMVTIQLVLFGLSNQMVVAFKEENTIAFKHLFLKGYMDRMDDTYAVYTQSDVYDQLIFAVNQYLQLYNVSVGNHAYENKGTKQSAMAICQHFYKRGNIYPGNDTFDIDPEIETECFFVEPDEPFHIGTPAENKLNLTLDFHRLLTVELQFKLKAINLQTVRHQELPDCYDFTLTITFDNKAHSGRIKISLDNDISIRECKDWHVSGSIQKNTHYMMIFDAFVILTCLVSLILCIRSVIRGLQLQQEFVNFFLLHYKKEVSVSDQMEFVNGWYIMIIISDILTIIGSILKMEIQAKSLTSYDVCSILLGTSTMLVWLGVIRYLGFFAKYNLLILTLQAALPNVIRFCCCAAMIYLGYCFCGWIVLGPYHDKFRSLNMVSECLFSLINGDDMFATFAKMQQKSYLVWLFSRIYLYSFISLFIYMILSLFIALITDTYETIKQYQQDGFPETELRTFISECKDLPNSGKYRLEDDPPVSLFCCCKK

[16] = Luminescence Cell-Based Dose Retest to Confirm Inhibitors of Cancer Stem Cells. [Related pubchem assays (depositor defined):AID2717, AID2721]; format: functional; conditions: Homo sapiens
[17] = viability loss of HMLE_sh_eGFP cells – cell-based, luminescence, counter-screen for HMLE_sh_ECad selective toxicity project, dose response (AID 463074); format: functional, Homo sapiens;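 further: HMLE human mammary epithelial cells expressing control shRNA against eGFP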
[18] = viability of uninfected HEp-2 cells – cell-based, HTS, cytotoxicity control for RSV inhibitor project, dose response (AID 2410); format: functional; conditions: human respiratory syncytial virus
[19] = molecular target: T3, Corticotropin-releasing factor receptor 2/Corticotropin-releasing factor-binding protein (Homo sapiens, UniProt P24387+Q13324); test: activators of CRF receptor 2 with binding protein – uHTS hits, confirmation (AID 602473); format: functional; conditions: read-out: EC50_Mean
T3 sequence (Q13324 whole entry): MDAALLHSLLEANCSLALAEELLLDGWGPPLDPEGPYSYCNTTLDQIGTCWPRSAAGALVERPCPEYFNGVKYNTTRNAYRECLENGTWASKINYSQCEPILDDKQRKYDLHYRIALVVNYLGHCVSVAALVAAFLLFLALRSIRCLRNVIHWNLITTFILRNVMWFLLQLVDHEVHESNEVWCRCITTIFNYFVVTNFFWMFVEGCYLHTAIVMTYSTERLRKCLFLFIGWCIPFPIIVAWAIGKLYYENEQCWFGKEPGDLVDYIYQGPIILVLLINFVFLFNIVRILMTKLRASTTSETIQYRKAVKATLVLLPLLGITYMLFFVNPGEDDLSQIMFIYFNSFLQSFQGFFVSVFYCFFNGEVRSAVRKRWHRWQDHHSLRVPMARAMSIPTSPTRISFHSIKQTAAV
T3 sequence (P24387 whole entry): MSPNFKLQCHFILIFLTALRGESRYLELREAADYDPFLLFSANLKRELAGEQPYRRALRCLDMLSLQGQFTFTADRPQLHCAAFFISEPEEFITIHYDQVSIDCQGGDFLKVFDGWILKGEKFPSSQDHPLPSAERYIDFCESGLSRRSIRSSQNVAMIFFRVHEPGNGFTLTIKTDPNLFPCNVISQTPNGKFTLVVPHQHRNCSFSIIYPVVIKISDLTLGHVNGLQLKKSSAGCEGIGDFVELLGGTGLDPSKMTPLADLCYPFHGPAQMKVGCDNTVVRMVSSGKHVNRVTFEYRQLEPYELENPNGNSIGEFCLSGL

[20] = Luminescence Cell-Based Dose Response HTS to Identify Activators of Luciferase Translation or Activity in H4 […] Cells. [Related pubchem assays: 1829 (Project Summary), 1814 (Primary HTS)]; format: functional
H4 = test: Luminescence Cell-Based Dose Response HTS to Identify Activators of 5'UTR Stem-Loop Driven Prion Protein mRNA Translation in H4 Neuroglioblastoma Cells. [Related pubchem assays: 1829 (Project Summary), 1814 (Primary HTS)]; format: functional; conditions: Homo sapiens
[21] = molecular target: Voltage-dependent T-type calcium channel subunit alpha-1H (Homo sapiens, UniProt O95180); format: functional;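 further: channel activity triggered by adding a high calcium stimulation buffer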
Mu-type opioid receptor = Mu-type opioid receptor (Homo sapiens, UniProt P35372); test: (§1) Counterscreen for agonists of heterodimerization of the mu 1 (OPRM1) and delta 1 (OPRD1) opioid receptors: Luminescence-based cell-based high throughput dose response assay to identify agonists of OPRM1 homodimerization.; format: functional
Sequence of Mu-type opioid receptor (P35372 whole entry): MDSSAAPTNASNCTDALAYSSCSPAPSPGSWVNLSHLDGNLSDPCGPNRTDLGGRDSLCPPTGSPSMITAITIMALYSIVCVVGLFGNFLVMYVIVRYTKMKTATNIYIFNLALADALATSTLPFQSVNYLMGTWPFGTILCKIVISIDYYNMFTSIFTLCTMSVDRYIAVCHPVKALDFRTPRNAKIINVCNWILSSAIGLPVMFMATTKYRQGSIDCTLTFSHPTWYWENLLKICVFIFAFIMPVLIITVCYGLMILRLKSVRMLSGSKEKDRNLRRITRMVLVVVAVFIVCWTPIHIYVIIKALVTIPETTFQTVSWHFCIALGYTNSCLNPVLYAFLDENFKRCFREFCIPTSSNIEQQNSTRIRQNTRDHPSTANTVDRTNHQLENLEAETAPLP

[22] = molecular target: Delta-type opioid receptor (Homo sapiens, UniProt P41143); test: as §1, with “of OPRD1” for “of OPRM1”, “homodimerization. [Related pubchem assays (depositor defined):AID504326, AID504355, AID504692, AID504904, AID504905]” for “homodimerization.”; format: functional
Sequence of Delta-type opioid receptor (P41143 whole entry): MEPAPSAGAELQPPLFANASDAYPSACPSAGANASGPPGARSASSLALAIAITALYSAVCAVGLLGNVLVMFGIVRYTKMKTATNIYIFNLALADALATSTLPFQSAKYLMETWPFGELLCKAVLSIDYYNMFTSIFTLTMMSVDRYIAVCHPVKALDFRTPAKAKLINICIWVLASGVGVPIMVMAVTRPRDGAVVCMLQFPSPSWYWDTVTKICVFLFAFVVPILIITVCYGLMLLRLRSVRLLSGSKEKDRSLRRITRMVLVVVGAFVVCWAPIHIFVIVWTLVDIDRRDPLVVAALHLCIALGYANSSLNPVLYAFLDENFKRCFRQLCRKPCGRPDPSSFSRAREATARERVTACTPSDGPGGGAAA

[23] = molecular target: 5-hydroxytryptamine receptor 5A (Homo sapiens, UniProt P47898); test: Counterscreen for agonists of OPRM1-OPRD1 heterodimerization: luminescence-based cell-based high throughput dose response assay to identify agonists of 5-hydroxytryptamine (serotonin) 5A receptor (HTR5A). [Related pubchem assays (depositor defined):AID504326, AID504355, AID504692, AID504904, AID504905]; format: functional
Sequence of 5-hydroxytryptamine receptor 5A (P47898 whole entry): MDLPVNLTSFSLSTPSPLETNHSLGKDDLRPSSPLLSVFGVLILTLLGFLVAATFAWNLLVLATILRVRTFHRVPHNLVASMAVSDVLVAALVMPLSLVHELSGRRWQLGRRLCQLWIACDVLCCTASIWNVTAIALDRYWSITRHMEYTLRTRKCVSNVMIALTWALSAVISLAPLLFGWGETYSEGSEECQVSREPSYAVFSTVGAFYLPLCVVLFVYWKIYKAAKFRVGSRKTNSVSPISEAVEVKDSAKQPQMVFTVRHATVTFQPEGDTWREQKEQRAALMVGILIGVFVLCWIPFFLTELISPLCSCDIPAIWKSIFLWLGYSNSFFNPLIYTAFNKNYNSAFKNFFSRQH

[24] = molecular target: COUP transcription factor 2 (Homo sapiens, UniProt P24468); test: Luminescence-based cell-based high throughput dose response assay to identify inhibitors of COUP-TFII (NR2F2).; format: functional;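 further: HEK293 cells transiently cotransfected with COUP-TFII expression vector and reporter; luciferase reporter luminescence driven by COUP-TFII from the pX2-168 reporter plasmid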
Sequence of COUP transcription factor 2 (P24468 whole entry, the tested form may be a part): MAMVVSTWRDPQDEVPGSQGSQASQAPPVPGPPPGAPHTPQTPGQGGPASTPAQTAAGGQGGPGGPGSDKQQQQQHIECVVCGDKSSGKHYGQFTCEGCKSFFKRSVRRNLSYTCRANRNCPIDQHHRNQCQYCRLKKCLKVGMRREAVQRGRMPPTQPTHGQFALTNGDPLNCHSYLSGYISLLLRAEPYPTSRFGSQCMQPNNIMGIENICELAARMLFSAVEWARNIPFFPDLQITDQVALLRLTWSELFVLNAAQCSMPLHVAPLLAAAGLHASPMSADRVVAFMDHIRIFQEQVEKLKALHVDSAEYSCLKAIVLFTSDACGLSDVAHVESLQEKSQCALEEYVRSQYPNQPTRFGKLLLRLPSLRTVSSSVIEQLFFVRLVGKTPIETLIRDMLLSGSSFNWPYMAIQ

[25] = molecular target: T4, Carboxy-terminal domain RNA polymerase II polypeptide A small phosphatase 1 (Homo sapiens, UniProt Q9GZU7); test: CTDSP1 inhibitors, concentration-response, biochemical, absorbance readout, ultra-high-throughput screen actives (AID 540297); format: functional
T4 sequence (Q9GZU7 whole entry): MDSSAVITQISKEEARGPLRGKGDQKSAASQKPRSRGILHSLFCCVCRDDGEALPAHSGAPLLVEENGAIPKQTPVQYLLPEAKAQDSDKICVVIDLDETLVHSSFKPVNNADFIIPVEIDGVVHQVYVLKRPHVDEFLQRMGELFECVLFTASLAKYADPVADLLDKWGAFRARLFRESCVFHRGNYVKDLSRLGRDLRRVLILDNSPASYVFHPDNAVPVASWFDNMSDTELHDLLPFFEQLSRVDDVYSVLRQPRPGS

## Cc1nn(S(=O)(=O)c2ccc(Cl)cc2)c(C)c1Sc1ccc([N+](=O)[O-])cc1
[1]
  EC50: > 60 µM (not active)
[2]
  IC50: > 100 µM (inactive)
[3]
  IC50: > 100 µM (not active)
INS1
  AC50: 6.21 µM (active)
[4]
  EC50: 1.73 µM (active)

## O=C(/C=C(O)/C=C/c1ccc(O)cc1)/C=C/c1ccc(O)cc1
CHO
  IC50: 40 µM (inactive)
Beta Lactamase
  IC50: 5.13 µM (active)

## CCOC(=O)N1C(=O)C2(CCCCC2)N(c2ccccc2Cl)C1=S
[5]
  EC50: < 30 nM (active)
[6]
  EC50: 39.7 µM (active)
[7]
  EC50: 23.1 µM (active)
[8]
  IC50: 5.92 µM (active)
[9]
  EC50: > 180 µM (inactive)

## CCCCNC(=O)CCCn1c(=O)[nH]c2ccc(Br)cc2c1=O
Escherichia coli
  AC50: 53.7 µM (active)

## C=CCOc1ccc2[nH]c(NC(=O)OC)nc2c1
BJ [10]
  EC50: 1.46 µM (inconclusive)
[11]
  EC50: 1.01 µM (active)
BJ [12]
  EC50: 1.69 µM (active)
HEK293 [13]
  EC50: > 59.6 µM (inactive)
BJ [14]
  EC50: 18.4 µM (inconclusive)
HEK293 [15]
  EC50: > 59.6 µM (inactive)

## Cc1ccc(N2C(=O)CC(N3CCSCC3)C2=O)c(C)c1 (centres undefined)
Ion channel NompC
  EC50: > 29.9 µM (inactive)
Mucolipin-3
  EC50: > 29.9 µM (not active)

## O=[N+]([O-])c1c(C(Cl)Cl)nn(-c2ccc(Cl)cc2)c1N1CCCCC1
[5]
  EC50: 436 nM (active)
[6]
  EC50: > 150 µM (inactive)
[7]
  EC50: 18.7 µM (active)
[9]
  EC50: > 180 µM (inactive)

## COC(=O)c1c(NC(=O)Cc2cccs2)sc(C(=O)N2CCCCC2)c1C
HEK293 [13]
  EC50: > 59.7 µM (inactive)
HEK293 [15]
  EC50: > 59.7 µM (inactive)

## Clc1ccc(CSc2nnc(-c3cccnc3)n2Cc2ccco2)c(Cl)c1
[16]
  AC50: 28 µM (active)
[17]
  AC50: 31.4 µM (active)

## CCOC(=O)N1CCC(NC(=O)C(NC(=O)C2CCC(C)CC2)C(C)CC)CC1 (centres undefined)
[2]
  IC50: > 100 µM (inactive)
[3]
  IC50: > 100 µM (not active)

## CC(C)c1nc2c(c(=O)c3ccccc3n2C)c(=O)n1CCc1ccccc1
[18]
  CC50: 36 µM (active)
cells
  IC50: 13.2 µM (active)
[19]
  EC50: 9.93 µM (active)
Ion channel NompC
  EC50: 3.97 µM (active)
Mucolipin-3
  EC50: 3.96 µM (active)

## O=c1oc(-c2ccccc2)nc2sc3c(c12)CCCC3
Escherichia coli
  AC50: 74.8 µM (active)
[20]
  EC50: 38.3 µM (active)
H4
  EC50: 34.1 µM (active)

## Oc1ccc(Oc2ccc3c(C(F)(F)F)cc(C(F)(F)F)nc3n2)cc1
[21]
  EC50: 3.15 µM (active)
Mu-type opioid receptor
  EC50: > 92.5 µM (inactive)
[22]
  EC50: > 92.5 µM (inactive)
[23]
  EC50: > 92.5 µM (inactive)
[24]
  IC50: 28.2 µM (inactive)

## C/C(=N\NC(=O)c1cc(-c2cccc([N+](=O)[O-])c2)[nH]n1)c1ccccc1O
[1]
  EC50: 6.64 µM (active)
[25]
  IC50: 1.7 µM (active)
[16]
  AC50: 2.35 µM (active)
[17]
  AC50: 50.7 µM (active)
[4]
  EC50: 2.18 µM (active)

From ChEMBL document CHEMBL1201862, “PubChem BioAssay data set” (2004)
